Results on eight compounds are retold here after PubChem BioAssay (NCI).

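All cell lines were grown in 96-well plates and treated with compound for 48 hours. At the TGI there is no net growth.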

Test systems include DLD-1 colon; DMS 273 small cell lung; HOP-18 NSCLC; KM20L2 colon; P388 leukemia; P388/ADR leukemia; SN12K1 renal; SNB-78 CNS; LXFL 529 NSCLC; RXF-631 renal.
Common to all, as to experiment: NCI tumour cell line growth inhibition, 48 h

Turning to `CC(=O)C(=Cc1cn(C)c(=O)n(C)c1=O)C(C)=O`, the TGI in the assay on DLD-1 colon was 222 µM; in the assay with DMS 273 small cell lung, 225 µM; in the assay with HOP-18 NSCLC it was 456 µM; in the assay on KM20L2 colon, 230 µM; in the assay on P388 leukemia it was 240 µM; with P388/ADR leukemia it was 392 µM. Further, the TGI in the assay on SN12K1 renal is 228 µM; in the assay on SNB-78 CNS it was 600 µM.

For `CC1=C(CO)C(=O)OC(C(C)C2CCC3C4CC5OC56C(O)C(N5CC5)=CC(=O)C6(C)C4CCC23C)C1` (centres undefined), the TGI worked out at 17.6 µM with DLD-1 colon; 17.9 µM in the assay with DMS 273 small cell lung; 9.87 µM in the assay on KM20L2 colon; 15.9 µM in the assay with LXFL 529 NSCLC; 34.5 µM in the assay with RXF-631 renal; 46.9 µM in the assay with SNB-78 CNS.

`NC(=O)CCC(N=c1c2ccccc2n(O)c2ccccc12)C(=O)O` (centres undefined): the TGI with DLD-1 colon is > 100 µM; in the assay with DMS 273 small cell lung, > 100 µM; with HOP-18 NSCLC, 98.4 µM; in the assay on KM20L2 colon, > 100 µM; in the assay on LXFL 529 NSCLC it was > 100 µM; in the assay on SNB-78 CNS, > 100 µM.

With `CC(C)CCCC(C)[C@H]1CCC(C2C[C@@H](O)[C@@H]3CC(O)[C@@H](O)C[C@]3(CO)C2=O)[C@]1(C)CCO` (some centres undefined), the TGI was > 100 µM in the assay on DLD-1 colon; > 68.5 µM in the assay with DMS 273 small cell lung; 47.7 µM in the assay with HOP-18 NSCLC; 38.5 µM in the assay with KM20L2 colon; 49.5 µM in the assay on P388 leukemia; > 88.7 µM in the assay on P388/ADR leukemia. Besides, the TGI in the assay with SN12K1 renal came out at 37.4 µM; in the assay on SNB-78 CNS it was 85.5 µM.

For the compound `COc1ccccc1NC(=O)C(=O)C(C(=O)c1ccccc1F)C1OC(=O)c2ccccc21` (centres undefined), the TGI in the assay on DLD-1 colon is > 100 µM; in the assay on DMS 273 small cell lung, > 100 µM; in the assay on KM20L2 colon it was 58.2 µM; in the assay with LXFL 529 NSCLC, > 100 µM; in the assay on RXF-631 renal, 67.8 µM; in the assay on SNB-78 CNS it was > 100 µM.

Regarding `C[s+]1c2ccccc2c2ccccc21`, the TGI with DMS 273 small cell lung, in the assay with KM20L2 colon, in the assay with LXFL 529 NSCLC and with SNB-78 CNS was > 100 µM throughout.

As to `CCOc1ccc2nc(NC(=O)C(=O)C(C(=O)c3ccccc3F)C3OC(=O)c4ccccc43)sc2c1` (centres undefined), the TGI in the assay with DLD-1 colon is > 100 µM; with DMS 273 small cell lung, 51.4 µM; with KM20L2 colon it was 71 µM; in the assay with LXFL 529 NSCLC it was 77.8 µM; in the assay with RXF-631 renal, 70.1 µM; in the assay on SNB-78 CNS it was 74.4 µM.

For `N#Cc1ccccc1NC(=O)C(=O)C(C(=O)c1ccccc1F)C1OC(=O)c2ccccc21` (centres undefined), the TGI is > 100 µM with DLD-1 colon; > 100 µM with DMS 273 small cell lung; > 100 µM in the assay with KM20L2 colon; > 100 µM in the assay with LXFL 529 NSCLC; 90.2 µM in the assay on SNB-78 CNS.
